Earlier results in US20060147526A1, “Pharmaceutical formulations comprising ß-2 adrenoreceptor agonists and xanthines” (CIPLA LIMTED, priority 2002, published 2006).

What was measured:
[1] = in vivo
[2] = inhalation

| SMILES | duration of action [1] | persistent bronchodilation lasting [2] |
| --- | --- | --- |
| CN(C)C(=O)Oc1cc(OC(=O)N(C)C)cc(C(O)CNC(C)(C)C)c1 (centres unmarked) [bambuterol, 5-[2-(tert-butylamino)-1-hydroxyethyl]-m-phenylene-bis(dimethylcarbamate)] | 24 h | – |
| OCc1cc(C(O)CNCCCCCCOCCCCc2ccccc2)ccc1O (centres unmarked) [salmeterol] | – | over 12 hours |
